Test results published in patent publication US7704701B2, “Diagnosis of prostate cancer with SPAS-1 cancer antigen” (The Regents of the University of California, priority 2000, dated 2010).

How the values were obtained:
CD8+ T cells [1] = assay: IFN-γ production (ELISA) by in vitro primed T cell cultures in response to peptide pulsed onto A221 cells; assay type: cell-based, human; conditions: HLA-A2+ healthy donors
Source text: (§1) FIG. 21: Strategy for the generation of human cytotoxic T lymphocytes (CTLs) specific for candidate human SPAS-1 peptides: In order to determine whether CD8+ T cells specific for human SPAS-1 peptides are present in the periphery of healthy individuals we used an in vitro priming strategy. Briefly, immature Myeloid Dendritic Cells (mDCs) were generated from culturing monocytes isolated from Peripheral Blood Mononuclear Cells (PBMCs) of a healthy HLA-A2+ donor for 5 days in GM-CSF and IL-4.
Following another in vitro restimulation, T cell cultures were assessed for their capacity to produce IFN-γ in response to the corresponding peptide, pulsed onto the HLA-A2 expressing cell line A221. IFN-γ was assessed by ELISA on the cell supernatants in triplicate wells.
as §1, with “In” for “FIG. 21: Strategy for the generation of human cytotoxic T lymphocytes (CTLs) specific for candidate human SPAS-1 peptides: In”

CD8+ T cells [2] = assay: IFN-γ production (ELISA) by FL-9-primed CD8+ T cells in response to titrated peptide pulsed onto THP-1 cells; assay type: cell-based, human; conditions: fourteen days after first stimulation
Procedure: FIG. 24. […] A) Monocyte-derived DCs from HLA-A2+ healthy donors were pulsed with HuSPAS-1 peptide 4 (FL-9) and then incubated with autologous PBMC. Following another in vitro restimulation, T cell cultures were then assessed for their capacity to produce IFN-γ in response to titrated doses of peptide 4 (FL-9), pulsed onto the HLA-A2 expressing cell line THP-1. IFN-γ was assessed by ELISA on the cell supernatants in triplicate wells. […] (100,000 CD8+ T cells/well and 50,000 THP-1 cells/well). […] Responsiveness of the FL-9-reactive CD8+ T cell line was assessed by co-culturing 100,000 CD8+ T cells with titrated numbers of infected THP-1 cells.
Monocyte-derived DCs from HLA-A2+ healthy donors were pulsed with HuSPAS-1 peptide 4 (FL-9) and then incubated with autologous PBMC. Following another in vitro restimulation, T cell cultures were then assessed for their capacity to produce IFN-γ in response to titrated doses of peptide 4 (FL-9), pulsed onto the HLA-A2 expressing cell line THP-1. IFN-γ was assessed by ELISA on the cell supernatants in triplicate wells. […] Responsiveness of the FL-9-reactive CD8+ T cell line was assessed by co-culturing 100,000 CD8+ T cells with titrated numbers of infected THP-1 cells.

Row | Sequence | immunogenicity: IFN-γ production in response to the corresponding peptide (CD8+ T cells [1]) | IFN-γ production in response to increasing doses of peptide (CD8+ T cells [2])
1 | FLTPLRNFL (H. sapiens) [P4] | Immunogenic | specifically produced IFN-γ
2 | LLADELITV (H. sapiens) [P1] | – | not
